This data set can be described thus: Amount of compound remaining in solution in acidic syrup kept at 3° C., measured by UV spectroscopy as a function of time. Format: physicochemical. The method, then: A concentrated solution 1 of (S)-1-(3-(((4-amino-2,2-dioxido-1H-benzo[c][1,2,6]thiadiazin-5-yl)oxy)methyl)piperidin-1-yl)-3-methylbutan-1-one at 0.3% (w/w) (3000 ppm) was prepared in water. pH was adjusted to 11 using NaOH to form (S)-1-(3-(((4-amino-2,2-dioxido-1H-benzo[c][1,2,6]thiadiazin-5-yl)oxy)methyl)piperidin-1-yl)-3-methylbutan-1-one sodium salt and obtain an homogeneous solution. Next, a syrup was prepared by mixing an aqueous solution of High Fructose Corn Syrup (HFCS), citric acid and deionized water. The final syrup contained 34% fructose, 0.68% citric acid, 0.1% sodium citrate and 65.22% water, with a pH of 2. […] The sample was kept at 3° C. and the amount of (S)-1-(3-(((4-amino-2,2-dioxido-1H-benzo[c][1,2,6]thiadiazin-5-yl)oxy)methyl)piperidin-1-yl)-3-methylbutan-1-one was measured by UV spectroscopy as a function of time. The amount of (S)-1-(3-(((4-amino-2,2-dioxido-1H-benzo[c][1,2,6]thiadiazin-5-yl)oxy)methyl)piperidin-1-yl)-3-methylbutan-1-one was reduced to 28 ppm after 1 week and first crystals were visually observed. After 12 weeks 1.7 ppm of (S)-1-(3-(((4-amino-2,2-dioxido-1H-benzo[c][1,2,6]thiadiazin-5-yl)oxy)methyl)piperidin-1-yl)-3-methylbutan-1-one remained in solution.
(§1) A concentrated solution 1 of (S)-1-(3-(((4-amino-2,2-dioxido-1H-benzo[c][1,2,6]thiadiazin-5-yl)oxy)methyl)piperidin-1-yl)-3-methylbutan-1-one at 0.3% (w/w) (3000 ppm) was prepared in water. pH was adjusted to 11 using NaOH to form (S)-1-(3-(((4-amino-2,2-dioxido-1H-benzo[c][1,2,6]thiadiazin-5-yl)oxy)methyl)piperidin-1-yl)-3-methylbutan-1-one sodium salt and obtain an homogeneous solution. Next, a syrup was prepared by mixing an aqueous solution of HFCS, citric acid, PVP 55k and deionized water. The final syrup contained 34% fructose, 0.68% citric acid, 0.1% sodium citrate, 0.03% PVP and 65.19% water. […] The sample was kept at 3° C. and the amount of (S)-1-(3-(((4-amino-2,2-dioxido-1H-benzo[c][1,2,6]thiadiazin-5-yl)oxy)methyl)piperidin-1-yl)-3-methylbutan-1-one was measured by UV spectroscopy as a function of time. The amount of (S)-1-(3-(((4-amino-2,2-dioxido-1H-benzo[c][1,2,6]thiadiazin-5-yl)oxy)methyl)piperidin-1-yl)-3-methylbutan-1-one was maintained at 30 ppm for 4 weeks, before a slight decrease and appearance of few crystals. After 12 weeks 9.6 ppm of (S)-1-(3-(((4-amino-2,2-dioxido-1H-benzo[c][1,2,6]thiadiazin-5-yl)oxy)methyl)piperidin-1-yl)-3-methylbutan-1-one remained in solution.
as §1, with “PVP 55k, maltodextrin (18DE)” for “PVP 55k”, “fructose, 15% maltodextrin,” for “fructose,”, “for 8” for “for 4”, “crystals.” for “crystals. After 12 weeks 9.6 ppm of (S)-1-(3-(((4-amino-2,2-dioxido-1H-benzo[c][1,2,6]thiadiazin-5-yl)oxy)methyl)piperidin-1-yl)-3-methylbutan-1-one remained in solution.”
A concentrated solution 1 of (S)-1-(3-(((4-amino-2,2-dioxido-1H-benzo[c][1,2,6]thiadiazin-5-yl)oxy)methyl)piperidin-1-yl)-3-methylbutan-1-one at 0.3% (w/w) (3000 ppm) was prepared in water. pH was adjusted to 11 using NaOH to form (S)-1-(3-(((4-amino-2,2-dioxido-1H-benzo[c][1,2,6]thiadiazin-5-yl)oxy)methyl)piperidin-1-yl)-3-methylbutan-1-one sodium salt and obtain an homogeneous solution. […]

As to `CC(C)CC(=O)N1CCC[C@H](COc2cccc3c2C(N)=NS(=O)(=O)N3)C1` [(S)-1-(3-(((4-amino-2,2-dioxido-1H-benzo[c][1,2,6]thiadiazin-5-yl)oxy)methyl)piperidin-1-yl)-3-methylbutan-1-one], the “amount remaining in solution” value by setting is: (Example 1 (comparative): 30 ppm start, syrup 34 Brix (34% fructose, 0.68% citric acid, 0.1% sodium citrate), pH 2, no polymer, 3° C., after 1 week, first crystals visually observed) 28 ppm; (Example 1 (comparative): 30 ppm start, syrup 34 Brix, pH 2, no polymer, 3° C., after 12 weeks) 1.7 ppm; (Example 2: 30 ppm start, syrup 34 Brix with 0.03% PVP 55k, 3° C., after 12 weeks) 9.6 ppm; (Example 3: 30 ppm start, syrup 34 Brix with 0.03% PVP 55k and 15% maltodextrin (18DE), 3° C., after 12 weeks) 27.3 ppm; (Example 10 (comparative): 18 ppm start, syrup 45 Brix, pH 2, no polymer, 3° C., after 7 weeks, first crystals visually observed) 15.8 ppm; (Example 10 (comparative): 18 ppm start, syrup 45 Brix, pH 2, no polymer, 3° C., after 14 weeks) 3.6 ppm. In addition, the “amount remaining in solution” value is, setting by setting: (Example 13 (comparative): 18 ppm start, syrup 20 Brix, pH 2, no polymer, 3° C., after 3.5 weeks, crystals visually observed) 14 ppm; (Example 13 (comparative): 18 ppm start, syrup 20 Brix, pH 2, no polymer, 3° C., after 18 weeks) 4 ppm. Also, the “amount maintained in solution” value turned out to be 30 ppm (Example 2: 30 ppm start, syrup 34 Brix with 0.03% PVP 55k, 3° C., maintained for 4 weeks, then slight decrease and few crystals); 30 ppm (Example 3: 30 ppm start, syrup 34 Brix with 0.03% PVP 55k and 15% maltodextrin (18DE), 3° C., maintained for 8 weeks, then slight decrease and few crystals); 30 ppm (Example 4: 30 ppm start, syrup 34 Brix with 0.03% HPMC (22 kDa), 3° C., maintained for 12 weeks); 18 ppm (Example 11: 18 ppm start, syrup 45 Brix with 0.0009% HPMC (Methocel K99), pH 2, 3° C., maintained for 17 weeks); 18 ppm (Example 12: 18 ppm start, syrup 45 Brix with 0.0009% CMC, pH 2, 3° C., maintained for 16 weeks); 18 ppm (Example 14: 18 ppm start, syrup 20 Brix with 0.0009% HPMC (Methocel K99), pH 2, 3° C., maintained for 18 weeks).

These data come from US20170188607A1, “SOLUBILIZATION OF A SWEET MODULATOR AND FLAVOR” (Firmenich SA, priority 2014, published 2017).
